From ChEMBL document CHEMBL1641528, “Reverse type I inhibitor of Mycobacterium tuberculosis CYP125A1” (Bioorg Med Chem Lett, 2011)

Target: T1, Steroid C26-monooxygenase (Mycobacterium tuberculosis, UniProt P9WPP1)
T1 sequence (P9WPP1 whole entry): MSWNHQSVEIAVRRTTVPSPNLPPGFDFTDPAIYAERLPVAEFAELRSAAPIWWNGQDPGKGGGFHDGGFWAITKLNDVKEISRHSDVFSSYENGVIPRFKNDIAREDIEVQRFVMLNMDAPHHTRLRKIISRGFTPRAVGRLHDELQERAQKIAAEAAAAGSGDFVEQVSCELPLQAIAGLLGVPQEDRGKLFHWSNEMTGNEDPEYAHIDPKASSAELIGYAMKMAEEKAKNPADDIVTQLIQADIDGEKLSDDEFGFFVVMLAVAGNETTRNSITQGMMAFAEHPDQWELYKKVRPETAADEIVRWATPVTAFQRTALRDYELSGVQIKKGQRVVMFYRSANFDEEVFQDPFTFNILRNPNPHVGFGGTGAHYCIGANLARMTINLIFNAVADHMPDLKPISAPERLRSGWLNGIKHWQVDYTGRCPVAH
Assay: Inhibition of Mycobacterium tuberculosis H37Rv CYP125A1 expressed in Escherichia coli at 200 uM

CC1CCC(C(=O)NC(Cc2c[nH]c3ccccc23)C(=O)Nc2ccncc2)CC1 (stereo unspecified)
inhibition at 200 µM: 30%
